This is an account of results in PMC3725310 (Nature, 2013).

The assay concerns the target p7(5a) (Hepatitis C virus (isolate EUH1480), UniProt O39928, A759S/C749A/C774T/C791S/T748G). In words: biochemical. The assay is classed as binding.

Molecules are shown by their SMILES.

For the compound `CC(N)C12CC3CC(CC(C3)C1)C2` (stereo not shown) [rimantadine], the Kd lay within 50 to 100 µM.
